Data as given in ChEMBL document CHEMBL3745700, “Functionalised isocoumarins as antifungal compounds: Synthesis and biological studies” (Bioorg Med Chem Lett, 2016).
In brackets after ≈: the same amount, converted by molar mass. Activity calls are given as the source filed them. The calls are words filed in the database; no cut-off is given here.

Legend:
MRC5 = test: Cytotoxicity against human MRC5 cells after 48 hrs by MTT assay; type: cell-based; details: MRC5, 48 h
Candida albicans [1] = test: Binding affinity to Candida albicans ATCC 10231 DNA assessed as degradation at 25 ug/ml after 12 hrs by agarose gel electrophoresis
Candida albicans [2] = test: Antifungal activity against Candida albicans ATCC 10231 assessed as growth inhibition at 250 ug/disc by disc diffusion method; type: functional, organism-based
Candida albicans [3] = test: Antifungal activity against Candida albicans ATCC 10231 assessed as inhibition of hyphal formation at MIC70 after 36 hrs by microscopic analysis; type: functional, organism-based
Candida albicans [4] = test: Antifungal activity against Candida albicans ATCC 10231 by broth microdilution method; type: functional
[5] = Hemolytic activity in Sheep RBC at MIC and IC50 after 1 hr by multiplate reader analysis; type: ADME, cell-based, Ovis aries; details: erythrocyte
Candida albicans [6] = test: Stimulation of hyphal formation in Candida albicans ATCC 10231 at MIC70 after 36 hrs by microscopic analysis; type: functional, organism-based
Candida parapsilosis = test: Antifungal activity against azole-resistant Candida parapsilosis CA-27 clinical isolate by broth microdilution method; type: functional
Candida albicans [7] = test: Antifungal activity against Candida albicans ATCC 10231 assessed as inhibition of biofilm formation at MIC70 after 48 hrs by propidium iodide/Concanavaline A-FITC staining-based fluorescence microscopic analysis; type: functional, organism-based
Pichia kudriavzevii = test: Antifungal activity against azole-resistant Candida krusei ATCC 6258 by broth microdilution method; type: functional

Row | SMILES | IC50 (MRC5) | Activity (Candida albicans [1]) | growth inhibition (GI) (Candida albicans [2]) | inhibition (Candida albicans [3]) | MIC (Candida albicans [4]) | Activity [5] | Activity (Candida albicans [6]) | MIC (Candida parapsilosis; Lodderomyces parapsilosis) | inhibition (Candida albicans [7]) | MIC (Pichia kudriavzevii) | MIC (Candida parapsilosis)
1 | COC(=O)/C=C/c1cc2ccccc2c(=O)o1 | 30 µg/mL (≈ 130 µM) | inactive | Active | Active | 500 µg/mL (≈ 2170 µM) | Non-toxic |  |  |  |  | 
2 | O=c1oc(-n2c(C(F)(F)F)nc3ccccc32)cc2ccccc12 | 15 µg/mL (≈ 45.4 µM) |  |  |  | 150 µg/mL (≈ 454 µM) |  | Active |  |  |  | 
3 | CCOC(=O)c1cn(-c2cc3ccccc3c(=O)o2)cn1 | 25 µg/mL (≈ 87.9 µM) |  |  |  | 62.5 µg/mL (≈ 220 µM) |  | Active | > 500 µg/mL | Active | > 500 µg/mL | 
4 | O=c1oc(-n2cncn2)cc2ccccc12 | 40 µg/mL (≈ 188 µM) | inactive |  | Active | 20 µg/mL (≈ 93.8 µM) | Non-toxic |  | > 500 µg/mL | Active | 125 µg/mL (≈ 586 µM) | 
5 | O=c1oc(-n2cccn2)cc2ccccc12 | 30 µg/mL (≈ 141 µM) | inactive |  | Active | 31.2 µg/mL (≈ 147 µM) | Non-toxic |  | > 500 µg/mL |  | > 500 µg/mL | 
6 | O=c1oc(-n2cnnn2)cc2ccccc12 | 10 µg/mL (≈ 46.7 µM) | inactive |  | Active | 15.6 µg/mL (≈ 72.8 µM) | Non-toxic |  | 125 µg/mL (≈ 584 µM) |  | 62.5 µg/mL (≈ 292 µM) | 
7 | C[C@@H](c1ncncc1F)[C@](O)(Cn1cncn1)c1ccc(F)cc1F [VORICONAZOLE] | 40 µg/mL (≈ 115 µM) |  |  | Active | 7.8 µg/mL (≈ 22.3 µM) |  |  |  |  | inactive | inactive
8 | O=c1oc(-n2ccnc2)cc2ccccc12 | 25 µg/mL (≈ 118 µM) | inactive |  | Active | 62.5 µg/mL (≈ 295 µM) | Non-toxic |  |  |  |  | 
9 | O=c1oc(-n2cc(Cl)cn2)cc2ccccc12 | 15 µg/mL (≈ 60.8 µM) |  |  | Active | 5 µg/mL (≈ 20.3 µM) | Non-toxic |  | > 500 µg/mL |  | 125 µg/mL (≈ 507 µM) | 
10 | O=c1oc(Br)cc2ccccc12 | 20 µg/mL (≈ 88.9 µM) | inactive | Active | Active | 15.6 µg/mL (≈ 69.3 µM) | Non-toxic |  | 62.5 µg/mL (≈ 278 µM) |  | 3.9 µg/mL (≈ 17.3 µM) | 
11 | C[Si](C)(C)C#Cc1cc2ccccc2c(=O)o1 | 30 µg/mL (≈ 124 µM) | inactive | Active |  | 250 µg/mL (≈ 1030 µM) | Non-toxic | Active |  |  |  | 
